Results: patent US7273848B2, “Apolipoprotein A-I agonists and their use to treat dyslipidemic disorders” (priority 1997, dated 2007)
Where “and” joins values, the source holds several entries; their conditions need not be identical. Equal values may be shown once. Each block holds one sequence with its values, some of them ahead of it. No end group written: not given here.

Tests used:
[1] = tested on: HDL cholesterol; experiment: HDL cholesterol in rabbits after injection of phospholipid/peptide complex; format: in vivo, rabbit; details: for Increase in HDL Cholesterol (%): 8 mg/kg i.v. as peptide/DPPC complexes
Procedure: Small discoidal particles consisting of phospholipid (DPPC) and peptide 146 (SEQ ID NO:146) were prepared following the cholate dialysis method. The phospholipid was dissolved in chloroform and dried under a stream of nitrogen. The peptide was dissolved in buffer (saline) at a concentration of 1-2 mg/ml. The lipid film was redissolved in buffer containing cholate (43° C.) and the peptide solution was added at a 3-1 phospholipid/peptide ratio. The mixture was incubated overnight at 43° C. and then dialyzed at 43° C. (24 hr.), room temperature (24 hr.) and 4° C. (24 hr.), with three changes of buffer (large volumes) at temperature point. The complexes were filter sterilized (0.22μ) for injection and storage at 4° C.
Male New Zealand White rabbits (2.5-3 kg) were injected intravenously with a dose of phospholipid/peptide complex (8 mg/kg bodyweight peptide 146 (SEQ ID NO:146) or 10 mg/kg bodyweight ApoA-I, expressed as peptide or protein content) in a single bolus injection not exceeding 10-15 ml. The animals were slightly sedated before the manipulations. Blood samples (collected on EDTA) were taken before and 5, 15, 30, 60, 240 and 1440 minutes after injection. The hematocrit (Hct) was determined for each sample. Samples were aliquoted and stored at −20° C. before analysis.
Plasma Lipids. The total plasma cholesterol, plasma triglycerides and plasma phospholipids were determined enzymatically using commercially available assays according to the manufacturer's protocols (Boehringer Mannheim, Mannheim, Germany and Biomerieux, 69280, Marcy-l'étoile, France).
Lipoprotein Profiles. The plasma lipoprotein profiles of the fractions obtained after the separation of the plasma into its lipoprotein fractions were determined by spinning in a sucrose density gradient. The fractions were collected and in each individual fraction the phospholipid and cholesterol content was measured enzymatically.

[2] = Lipid binding by fluorescence spectroscopy
Procedure: The lipid binding properties of the peptides synthesized in Section 6, supra, were tested by fluorescence measurements with labeled peptides, in the present case Tryptophane (Trp or W) or Naphtylalanine (Nal). The fluorescence spectra were recorded on a Fluoromax from Spex (Jobin-Yvon) equipped with a Xenon lamp of 150 W, two monochromators (excitation and emission), a photomultiplier R-928 for detection sensitive in the red up to 850 nm and a thermoelectric magnetic stirred cell holder. Quartz Suprasil cuvettes were used for measurements in the micromolar concentration range. A device of variable slits (from 0.4 to 5 nm) allows modulation of the incident and emitted intensities according to the concentration of peptide used. The reported values are in general the average of between 2 to 4 spectra. The peptide concentration is determined by absorption spectrometry on a Philips PU 8800 using the absorption band of the Trp (ε280 nm=5,550 M^−1 cm^−1 in Tris buffer) or the Nal (ε224 nm =92,770 M^−1 cm^−1 in methanol)
Fluorescence spectra of the peptides were recorded between 290 nm and 450 nm in Tris-HCl buffer (20 mM, pH=7.5), in the presence and absence of lipidic vesicles. The small unilamellar vesicles were formed after rehydration in buffer of the lyophilized phospholipids, dispersion and tip sonification under a N2 stream. The lipids used were either Egg PC/Chol. (20:1) or POPC/Chol. (20:1). The spectra were recorded at a peptide concentration of 2 μM and at a temperature of 37° C. The fluorescence reference standard in the case of Trp was N-acetyltryptophanylamide (NATA).
Lipid binding studies were done through progressive lipidic vesicle addition to the peptide in solution at 2 μM (slits: 5 nm in excitation and 1.5 nm in emission). Dilution effects were taken into account for the fluorescence intensity determination. The lipid concentrations were varied from 10 to 600 μM and the molar ratio of lipid to peptide (Ri) was varied from 5 to 300. The wavelength of excitation was set at 280 nm for both Trp and Nal.
The data were directly recorded and treated by an IBM-PC linked to the spectrofluorimeter through the DM3000F software from Spex. The spectra were corrected by substraction of the solvent contribution and by application of a coefficient given by the constructor taking into account the variation of the photomultiplier response versus the wavelength.
The fluorescence spectra of the peptides were characterized by the wavelength at their maximum of fluorescence emission and by their quantum yield compared to NATA in the case of peptides labeled with a tryptophane. The process of binding to lipids was analyzed by calculating the shift of the wavelength at the maximum of fluorescence emission, (λmax), and the variation of the relative fluorescence intensity of emission versus the lipid concentration. The relative fluorescence intensity is defined as the following ratio: (I-I0)λmax/I0λmax. I and I0 are both measured at the (λmax) corresponding to the initial free state of the peptide, i.e., without lipids. I is the intensity at a defined lipid to peptide ratio and I0 is the same parameter measured in absence of lipids. The absence of these variations is relevant of the absence of interactions of the peptides with the lipids.

Sequence: PVLELFENLLERLLDALQKKLK [peptide 146]
duration of the increase in cholesterol of the HDL cholesterol fractions ([1]; 8 mg/kg as peptide/DPPC complexes, apparent at 5 min.): approximately 24 hr
Increase in HDL Cholesterol (%) ([1]; 5 min.): 31.3%
Increase in HDL Cholesterol (%) ([1]; 15 min.): 60.4%
Increase in HDL Cholesterol (%) ([1]; 60 min.): 42.9%
Increase in HDL Cholesterol (%) ([1]; 240 min., 8 mg/kg): 90% and 90.2%
Increase in HDL Cholesterol (%) ([1]; 1440 min.): 71.2%
mobilization of peripheral cholesterol (in words) ([1]; peptide/DPPC complexes 8 mg/kg): induces rapid and efficient mobilization of peripheral cholesterol

lipid to peptide molar ratio at which burying of the tryptophane residue is maximal ([2]; EPC/Chol (20:1) SUVs): about 30
λmax (nm) ([2]; Ri 0 (buffer, no lipids), 2 μM): 347 nm
I/Io ([2]; Ri 0, 2 μM peptide, 37° C.): 0
I/Io ([2]; Ri 5): 19.7
λmax (nm) ([2]; Ri 5): 334.5 nm
I/Io ([2]; Ri 10): 31.4
λmax (nm) ([2]; Ri 10): 329 nm
I/Io ([2]; Ri 30): 49.4
λmax (nm) ([2]; Ri 30): 325.5 nm
I/Io ([2]; Ri 60): 64.3
λmax (nm) ([2]; Ri 60): 325 nm
I/Io ([2]; Ri 100): 77
λmax (nm) ([2]; Ri 100): 325.5 nm
I/Io ([2]; Ri 200): 84
λmax (nm) ([2]; Ri 200): 325 nm
wavelength for the tryptophane maximum fluorescence emission after binding ([2]; bound to EPC/Chol (20:1) SUVs): 325 nm
lipid binding (in words) ([2]; small unilamellar vesicles): binds very effectively
Sequence: PVLELFENLWERLLDALQKKLK [peptide 149]
